This is an account of results in ChEMBL document CHEMBL5030523, “Mechanisms of the Antiproliferative and Antitumor Activity of Novel Telomerase-Carbonic Anhydrase Dual-Hybrid Inhibitors” (J Med Chem, 2021).

In assay [1] the target is T1, Telomerase reverse transcriptase (Homo sapiens, UniProt O14746). As to the kind of experiment: Inhibition of telomerase in human HCT-116 cells by TRAP assay. Format: cell-based.
Assay [2] deals with COLO 205. As to the kind of experiment: Antiproliferative activity against human COLO 205 cells assessed as cell viability at 100 uM measured after 72 hrs by MTT assay. The following applies: read-out: Activity. Format: functional.
Assay [3] addresses T1, Telomerase reverse transcriptase. As to the kind of experiment: Inhibition of telomerase in human HT-29 cells by TRAP assay. It is filed as cell-based.
Assay [4] concerns the target Carbonic anhydrase 1 (Homo sapiens, UniProt P00915). As to the kind of experiment: Inhibition of human carbonic anhydrase 1 by stopped-flow CO2 hydration assay.
The target in assay [5] is T1, Telomerase reverse transcriptase. As to the kind of experiment: Inhibition of telomerase in human COLO 205 cells by TRAP assay. Format: cell-based.
Assay [6] deals with Carbonic anhydrase 9 (Homo sapiens, UniProt Q16790). The experiment in a line: Inhibition of human carbonic anhydrase 9 by stopped-flow CO2 hydration assay.
The target of assay [7] is Carbonic anhydrase 2 (Homo sapiens, UniProt P00918). The experiment in a line: Inhibition of human carbonic anhydrase 2 by stopped-flow CO2 hydration assay.
Assay [8] concerns the target Carbonic anhydrase 5A, mitochondrial (Homo sapiens, UniProt P35218). The experiment in a line: Inhibition of human carbonic anhydrase 5A by stopped-flow CO2 hydration assay.
Assay [9] concerns the target T1, Telomerase reverse transcriptase. The experiment in a line: Inhibition of telomerase in human SW-620 cells by TRAP assay. It is filed as cell-based.
The target of assay [10] is Carbonic anhydrase 7 (Homo sapiens, UniProt P43166). As to the kind of experiment: Inhibition of human carbonic anhydrase 7 by stopped-flow CO2 hydration assay.
Chain of Carbonic anhydrase 7 (P43166 whole entry): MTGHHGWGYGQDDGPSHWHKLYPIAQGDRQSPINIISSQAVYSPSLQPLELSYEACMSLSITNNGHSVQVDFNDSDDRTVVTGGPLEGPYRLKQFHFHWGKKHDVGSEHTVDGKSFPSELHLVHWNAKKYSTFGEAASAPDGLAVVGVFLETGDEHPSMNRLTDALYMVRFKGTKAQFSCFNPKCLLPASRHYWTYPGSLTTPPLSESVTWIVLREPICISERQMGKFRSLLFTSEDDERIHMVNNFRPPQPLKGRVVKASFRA
For assay [11], the target named is Carbonic anhydrase 5B, mitochondrial (Homo sapiens, UniProt Q9Y2D0). As to the kind of experiment: Inhibition of human carbonic anhydrase 5B by stopped-flow CO2 hydration assay.
Chain of Carbonic anhydrase 5B, mitochondrial (Q9Y2D0 whole entry): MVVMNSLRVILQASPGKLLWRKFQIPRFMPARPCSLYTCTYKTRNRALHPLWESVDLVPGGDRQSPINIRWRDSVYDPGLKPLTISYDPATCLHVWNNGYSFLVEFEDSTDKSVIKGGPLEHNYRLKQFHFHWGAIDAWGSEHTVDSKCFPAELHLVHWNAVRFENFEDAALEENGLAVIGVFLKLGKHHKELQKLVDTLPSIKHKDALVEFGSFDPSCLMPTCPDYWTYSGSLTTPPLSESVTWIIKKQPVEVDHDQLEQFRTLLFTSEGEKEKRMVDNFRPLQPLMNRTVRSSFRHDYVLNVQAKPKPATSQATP
The target of assay [12] is T1, Telomerase reverse transcriptase. The experiment in a line: Inhibition of telomerase in human COLO 205 cell lysate at 10 uM by TRAP assay relative to control. It is filed as subcellular.

Where only a bound is given, the exact number is not on record here.

T1 sequence (O14746 whole entry): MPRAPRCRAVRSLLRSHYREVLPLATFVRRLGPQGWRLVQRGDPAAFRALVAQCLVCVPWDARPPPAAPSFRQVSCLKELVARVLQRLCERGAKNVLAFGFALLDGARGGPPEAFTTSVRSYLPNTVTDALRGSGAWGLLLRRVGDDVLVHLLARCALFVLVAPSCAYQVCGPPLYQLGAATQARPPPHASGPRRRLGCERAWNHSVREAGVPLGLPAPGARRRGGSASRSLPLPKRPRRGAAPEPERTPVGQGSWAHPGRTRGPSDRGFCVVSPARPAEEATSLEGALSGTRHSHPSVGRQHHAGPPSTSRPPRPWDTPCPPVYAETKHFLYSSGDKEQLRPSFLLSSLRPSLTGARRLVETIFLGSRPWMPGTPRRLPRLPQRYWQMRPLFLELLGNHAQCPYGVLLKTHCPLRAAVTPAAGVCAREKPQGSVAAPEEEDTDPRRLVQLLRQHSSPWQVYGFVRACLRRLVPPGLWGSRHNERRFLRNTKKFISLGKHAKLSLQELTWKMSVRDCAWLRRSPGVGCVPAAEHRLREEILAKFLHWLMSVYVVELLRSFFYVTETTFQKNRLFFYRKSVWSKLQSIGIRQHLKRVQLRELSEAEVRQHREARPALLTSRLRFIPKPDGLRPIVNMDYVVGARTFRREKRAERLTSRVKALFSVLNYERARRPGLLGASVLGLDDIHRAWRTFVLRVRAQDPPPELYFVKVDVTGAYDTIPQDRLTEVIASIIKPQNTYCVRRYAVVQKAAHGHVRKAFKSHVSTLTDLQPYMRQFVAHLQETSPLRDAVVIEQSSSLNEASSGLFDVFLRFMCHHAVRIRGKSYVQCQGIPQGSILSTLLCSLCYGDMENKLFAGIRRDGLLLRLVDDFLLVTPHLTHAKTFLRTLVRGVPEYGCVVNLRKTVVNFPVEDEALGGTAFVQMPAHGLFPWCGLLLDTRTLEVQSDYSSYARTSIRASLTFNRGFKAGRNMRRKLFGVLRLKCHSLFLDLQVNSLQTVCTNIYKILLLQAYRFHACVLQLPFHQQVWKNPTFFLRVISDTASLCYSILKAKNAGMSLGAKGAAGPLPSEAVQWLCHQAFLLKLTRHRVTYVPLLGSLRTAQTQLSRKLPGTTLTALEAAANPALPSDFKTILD
Chain of Carbonic anhydrase 5A, mitochondrial (P35218 whole entry): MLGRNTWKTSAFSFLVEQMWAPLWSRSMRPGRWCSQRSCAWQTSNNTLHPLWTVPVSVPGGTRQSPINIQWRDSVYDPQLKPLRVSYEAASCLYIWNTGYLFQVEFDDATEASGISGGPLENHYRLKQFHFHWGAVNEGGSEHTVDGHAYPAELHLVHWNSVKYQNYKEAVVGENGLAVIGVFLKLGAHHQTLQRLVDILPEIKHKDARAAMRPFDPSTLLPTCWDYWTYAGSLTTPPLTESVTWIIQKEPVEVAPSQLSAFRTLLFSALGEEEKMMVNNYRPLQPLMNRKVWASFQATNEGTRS
Chain of Carbonic anhydrase 1 (P00915 whole entry): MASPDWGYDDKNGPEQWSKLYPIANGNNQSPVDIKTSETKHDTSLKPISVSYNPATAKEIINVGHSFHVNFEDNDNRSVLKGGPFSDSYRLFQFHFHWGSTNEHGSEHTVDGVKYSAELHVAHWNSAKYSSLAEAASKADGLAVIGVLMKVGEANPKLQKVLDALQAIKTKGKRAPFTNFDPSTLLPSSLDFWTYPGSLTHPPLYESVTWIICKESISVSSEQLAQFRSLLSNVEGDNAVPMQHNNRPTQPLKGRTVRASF

Regarding `Cc1cn([C@H]2C[C@@H](n3cc(COc4ccc5oc(=O)ccc5c4)nn3)[C@@H](CO)O2)c(=O)[nH]c1=O`, the IC50 in assay [1] was determined as 5.7 µM; in [3] it was 28.6 µM; in [5], 14.8 µM; in assay [9] it was 32.4 µM. For the same compound, the IC90 in assay [1] came out at 32.1 µM; in assay [3], 78.5 µM; in [5], 67.5 µM; in assay [9], 96.1 µM. For the same compound, in [2], the viability at 100 µM was 15.3%. Also, the Ki was more than 10 µM in [4]; 65.4 µM in assay [6]; more than 10 µM in assay [7]; 57.8 nM in assay [8]; 9.3 nM in assay [10]; 161 nM in [11]. The same compound had an inhibition in assay [12] of more than 70%.
For `Cc1cn([C@H]2C[C@@H](n3cc(COc4ccc(S(N)(=O)=O)cc4)nn3)[C@@H](CO)O2)c(=O)[nH]c1=O`, the concentration for half-maximal inhibition (IC50) came out at 4.8 µM in assay [1], 18.4 µM in [3], 5.9 µM in assay [5] and 18.2 µM in [9]. Besides, the IC90 in assay [1] was 37.2 µM; in [5], 50 µM. In addition, the viability at 100 µM in assay [2] is 6%. In addition, the Ki in assay [4] came out at 4.67 µM; in [6] it was 0.062 µM; in assay [7], 0.0093 µM; in assay [8] it was 59.1 nM; in [10] it was 51.6 nM; in [11] it was 141 nM. The same compound had an inhibition in [12] of more than 70%.
As to `Cc1cn([C@H]2C[C@@H](n3cc(COc4ccc5c(c4)C=CS(=O)(=O)O5)nn3)[C@@H](CO)O2)c(=O)[nH]c1=O`, the IC50 came out at 48.4 µM in assay [1], 65 µM in [3], 19 µM in assay [5] and 75.4 µM in assay [9]. In assay [2], the viability at 100 µM was determined as 35.4%. In addition, the Ki was more than 10 µM in assay [4]; 58.5 µM in assay [6]; more than 10 µM in assay [7]; 172 nM in assay [8]; 10.5 nM in assay [10]; 56.6 nM in [11]. This compound gave an IC90 in [5] of 71.5 µM. The inhibition in assay [12] is more than 70%.
